We go through 26 compounds from ChEMBL document CHEMBL5214954, “Identification of PI3K/HDAC Dual-targeted inhibitors with subtype selectivity as potential therapeutic agents against solid Tumors: Building HDAC6 potency in a Quinazolinone-based PI3Kδ-selective template” (Bioorg Med Chem, 2022).

In data set [1] the target is T1, Phosphatidylinositol 4,5-bisphosphate 3-kinase catalytic subunit delta isoform (Homo sapiens, UniProt O00329).
T1 sequence (O00329 whole entry): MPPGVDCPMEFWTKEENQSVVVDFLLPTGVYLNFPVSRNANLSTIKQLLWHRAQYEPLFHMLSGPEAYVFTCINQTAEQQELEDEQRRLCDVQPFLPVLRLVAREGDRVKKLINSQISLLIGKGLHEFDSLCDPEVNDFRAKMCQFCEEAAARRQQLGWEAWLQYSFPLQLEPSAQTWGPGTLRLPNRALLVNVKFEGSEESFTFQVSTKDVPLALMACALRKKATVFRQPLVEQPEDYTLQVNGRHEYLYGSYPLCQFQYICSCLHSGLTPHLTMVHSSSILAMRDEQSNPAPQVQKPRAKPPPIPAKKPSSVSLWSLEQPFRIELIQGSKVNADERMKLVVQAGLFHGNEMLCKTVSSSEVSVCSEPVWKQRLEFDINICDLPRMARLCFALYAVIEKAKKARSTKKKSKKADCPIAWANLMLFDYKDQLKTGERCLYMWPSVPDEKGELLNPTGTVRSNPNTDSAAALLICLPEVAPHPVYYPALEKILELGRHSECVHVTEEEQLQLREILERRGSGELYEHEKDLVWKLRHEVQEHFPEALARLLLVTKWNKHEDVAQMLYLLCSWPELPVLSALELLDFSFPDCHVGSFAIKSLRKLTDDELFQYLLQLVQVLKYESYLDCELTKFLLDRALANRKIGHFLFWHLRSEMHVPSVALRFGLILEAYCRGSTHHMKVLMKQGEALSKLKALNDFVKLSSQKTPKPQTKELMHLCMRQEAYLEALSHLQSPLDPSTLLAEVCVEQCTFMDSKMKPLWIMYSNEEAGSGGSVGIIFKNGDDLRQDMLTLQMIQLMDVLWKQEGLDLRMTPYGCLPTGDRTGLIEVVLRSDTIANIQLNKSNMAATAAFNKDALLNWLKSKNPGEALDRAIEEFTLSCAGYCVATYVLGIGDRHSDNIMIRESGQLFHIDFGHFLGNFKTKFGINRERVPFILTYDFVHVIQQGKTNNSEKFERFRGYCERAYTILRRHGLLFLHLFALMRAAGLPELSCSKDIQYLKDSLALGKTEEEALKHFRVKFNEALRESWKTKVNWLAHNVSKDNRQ
Kind of data set: Inhibition of PI3Kdelta (unknown origin) measured by ADP-Glo assay.

Data set [2] concerns the target T2, Protein deacetylase HDAC6 (Homo sapiens, UniProt Q9UBN7).
T2 sequence (Q9UBN7 whole entry): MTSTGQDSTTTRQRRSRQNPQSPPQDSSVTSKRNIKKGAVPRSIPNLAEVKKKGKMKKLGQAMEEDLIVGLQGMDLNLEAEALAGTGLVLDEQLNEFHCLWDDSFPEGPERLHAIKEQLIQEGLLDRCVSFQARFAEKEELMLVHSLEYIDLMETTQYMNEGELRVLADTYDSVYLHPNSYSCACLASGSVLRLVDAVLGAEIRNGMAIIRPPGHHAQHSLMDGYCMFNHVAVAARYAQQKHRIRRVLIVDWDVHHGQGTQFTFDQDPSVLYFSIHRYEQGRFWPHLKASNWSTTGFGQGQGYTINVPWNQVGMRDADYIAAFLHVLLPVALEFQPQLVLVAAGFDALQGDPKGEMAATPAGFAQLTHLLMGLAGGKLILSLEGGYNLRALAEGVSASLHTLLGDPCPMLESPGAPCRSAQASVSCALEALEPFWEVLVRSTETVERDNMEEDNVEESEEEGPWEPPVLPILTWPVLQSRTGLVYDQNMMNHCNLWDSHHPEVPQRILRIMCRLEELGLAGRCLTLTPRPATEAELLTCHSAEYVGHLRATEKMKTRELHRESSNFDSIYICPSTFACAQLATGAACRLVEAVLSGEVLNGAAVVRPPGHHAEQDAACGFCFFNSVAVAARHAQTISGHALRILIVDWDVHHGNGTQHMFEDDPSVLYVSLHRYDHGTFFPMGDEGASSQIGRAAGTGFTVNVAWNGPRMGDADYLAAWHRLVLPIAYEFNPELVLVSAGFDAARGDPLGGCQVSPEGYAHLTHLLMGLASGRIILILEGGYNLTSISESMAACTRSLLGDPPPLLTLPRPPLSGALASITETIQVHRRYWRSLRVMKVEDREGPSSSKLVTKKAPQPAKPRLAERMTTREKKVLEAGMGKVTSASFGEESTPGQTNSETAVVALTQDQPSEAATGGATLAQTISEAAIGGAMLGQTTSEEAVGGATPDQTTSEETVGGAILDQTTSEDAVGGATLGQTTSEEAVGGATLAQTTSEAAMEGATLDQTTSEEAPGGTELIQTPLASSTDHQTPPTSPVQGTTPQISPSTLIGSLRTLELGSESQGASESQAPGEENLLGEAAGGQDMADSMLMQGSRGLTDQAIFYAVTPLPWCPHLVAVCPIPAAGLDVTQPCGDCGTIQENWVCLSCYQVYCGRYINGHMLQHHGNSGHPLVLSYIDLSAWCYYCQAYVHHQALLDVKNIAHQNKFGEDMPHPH
Description: Inhibition of HDAC6 (unknown origin) measured by fluorescence based assay

In another data set the target is Histone deacetylase 1 (Homo sapiens, UniProt Q13547).
Histone deacetylase 1, sequence (Q13547 whole entry): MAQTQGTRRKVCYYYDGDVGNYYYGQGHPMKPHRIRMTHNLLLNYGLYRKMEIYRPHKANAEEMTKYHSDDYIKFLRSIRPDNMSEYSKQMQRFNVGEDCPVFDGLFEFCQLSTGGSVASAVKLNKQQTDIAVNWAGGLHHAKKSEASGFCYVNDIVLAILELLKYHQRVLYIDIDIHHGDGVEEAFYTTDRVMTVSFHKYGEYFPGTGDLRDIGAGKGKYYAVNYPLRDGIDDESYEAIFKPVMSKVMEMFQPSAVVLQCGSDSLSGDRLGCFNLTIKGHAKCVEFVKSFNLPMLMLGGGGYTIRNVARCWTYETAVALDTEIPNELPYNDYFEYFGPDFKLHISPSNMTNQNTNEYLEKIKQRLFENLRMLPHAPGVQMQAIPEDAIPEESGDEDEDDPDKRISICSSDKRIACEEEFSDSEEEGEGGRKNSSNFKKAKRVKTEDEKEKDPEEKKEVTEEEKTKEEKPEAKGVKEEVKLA
Another data set relates to KM12. Kind of data set: Antiproliferative activity against human KM12 cells incubated for 72 hrs by CCK-8 assay. Particulars: KM12, 72 h. The format is functional, cell-based.
In the next data set the test system is HCT-116. Description: Antiproliferative activity against human HCT-116 cells incubated for 72 hrs by CCK-8 assay. The format is functional, cell-based. To be noted: HCT-116, 72 h.
The subject of a further data set is T47D. Kind of data set: Antiproliferative activity against human T47D cells incubated for 72 hrs by CCK-8 assay. It counts as functional, cell-based. In general terms: Formazan colour is commonly taken as a measure of viable cells.
The next data set relates to SU-DHL-6. Kind of data set: Antiproliferative activity against human SU-DHL-6 cells incubated for 72 hrs by CCK-8 assay. The format is functional, cell-based. To be noted: SU-DHL-6, 72 h.
The nature of data set [3]: Cytotoxicity against HUVEC cells incubated for 72 hrs by CCK-8 assay. Particulars: human.

pIC50: −log10 of the molar value.

Description for Histone deacetylase 1: Inhibition of HDAC1 (unknown origin) measured by fluorescence based assay

In general, pIC50 refers to the negative decadic logarithm of the IC50, by convention in mol/L. Read a high pIC50 as a small IC50. Regarding `CC[C@H](Nc1ncnc2[nH]cnc12)c1nc2cccc(F)c2c(=O)n1CCCCCC(=O)NO`, the pIC50 in data set [1] is 7.44; in data set [2] it was 6.92; on Histone deacetylase 1, 7.07.
On the same counts, the results for `N#Cc1c(N)nc(N)nc1N1CC2(CC2)C[C@H]1c1nc2cccc(F)c2c(=O)n1Cc1ccc(C(=O)NO)s1` are 7.70, 7.49 and 7.09.
`CC[C@H](Nc1ncnc2[nH]cnc12)c1nc2cccc(F)c2c(=O)n1Cc1ccc(C(=O)NO)cc1`: the negative-log IC50 (pIC50) is 7.00 in data set [1], 7.35 in data set [2] and 6.61 at Histone deacetylase 1.
On to `Cn1c([C@@H]2C[C@@H](OC(=O)NCc3ccc(C(=O)NO)s3)CN2c2nc(N)nc(N)c2C#N)nc2cccc(Cl)c2c1=O`, for which the negative-log IC50 (pIC50) is 7.80 in data set [1], 7.37 in data set [2] and 6.74 at Histone deacetylase 1.
In turn, `N#Cc1c(N)nc(N)nc1N1CC2(CC2)C[C@H]1c1nc(NCc2ccc(C(=O)NO)cc2)c2c(Cl)cccc2n1` gave a pIC50 in data set [2] of 6.40.
Compound `N#Cc1c(N)nc(N)nc1N1C[C@H](OC(=O)NCc2ccc(C(=O)NO)cc2)C[C@H]1c1nc2cccc(F)c2c(=O)n1-c1ccccc1` gave a negative logarithm of the IC50 (pIC50) in data set [1] of 7.62.
As for `N#Cc1c(N)nc(N)nc1N1CCC[C@H]1c1nc2cccc(Cl)c2c(=O)n1Cc1ccc(C(=O)NO)cc1`, the pIC50 in data set [2] is 6.55.
On to `C[C@H](Nc1nc(N)nc(N)c1C#N)c1nc2cccc(Cl)c2c(=O)n1Cc1ccc(C(=O)NO)s1`, for which the pIC50 was 7.18 in data set [2] and 6.67 at Histone deacetylase 1.
On to `N#Cc1c(N)nc(N)nc1N1CCC[C@H]1c1nc(NCc2ccc(C(=O)NO)cc2)c2c(Cl)cccc2n1`, for which, in data set [2], the negative logarithm of the IC50 (pIC50) is 6.57.
As for `Cn1c([C@@H]2C[C@@H](OCc3ccc(C(=O)NO)s3)CN2c2nc(N)nc(N)c2C#N)nc2cccc(Cl)c2c1=O`, the values for the pIC50 (in data set [1]; in data set [2]; at Histone deacetylase 1) were 7.38, 7.89 and 7.06, respectively.
Take `CC[C@H](Nc1nc(N)nc(N)c1C#N)c1nc2cccc(Cl)c2c(=O)n1Cc1ccc(C(=O)NO)s1`: the pIC50 was 7.35 in data set [2] and 6.70 on Histone deacetylase 1.
With `CN(Cc1ccc(C(=O)NO)cc1)C(=O)O[C@@H]1C[C@@H](c2nc3cccc(Cl)c3c(=O)n2C)N(c2nc(N)nc(N)c2C#N)C1`, the negative logarithm of the IC50 (pIC50) in data set [1] was 7.38; in data set [2] it was 7.96; against Histone deacetylase 1 it was 6.59.
As to `Cn1c([C@@H]2C[C@@H](OCc3ccc(C(=O)NO)cc3)CN2c2nc(N)nc(N)c2C#N)nc2cccc(Cl)c2c1=O`, the pIC50 is 7.12 in data set [1], 7.89 in data set [2] and 7.14 at Histone deacetylase 1.
As to `N#Cc1c(N)nc(N)nc1N1CC2(CC2)C[C@H]1c1nc2cccc(Cl)c2c(=O)n1Cc1cc(C(=O)NO)no1`, the negative logarithm of the IC50 (pIC50) in data set [1] was 8.16; in data set [2], 6.22.
On to `N#Cc1c(N)nc(N)nc1N1CC2(CC2)C[C@H]1c1nc(NCCc2ccc(C(=O)NO)cc2)c2c(Cl)cccc2n1`, for which the pIC50 in data set [2] is 6.66.
As to `N#Cc1c(N)nc(N)nc1N1CCC[C@H]1c1nc2cccc(Cl)c2c(=O)n1Cc1ccc(C(=O)NO)s1`, the negative-log IC50 (pIC50) in data set [2] is 7.17; at Histone deacetylase 1 it was 6.95.
In the case of `Cn1c([C@@H]2C[C@@H](OC(=O)NCCc3ccc(C(=O)NO)cc3)CN2c2nc(N)nc(N)c2C#N)nc2cccc(Cl)c2c1=O`, the pIC50 is 7.66 in data set [1], 7.44 in data set [2] and 6.54 on Histone deacetylase 1.
As to `N#Cc1c(N)nc(N)nc1N1CC2(CC2)C[C@H]1c1nc2cccc(Cl)c2c(=O)n1Cc1ccc(C(=O)NO)cc1`, the pIC50 in data set [1] was 8.21; in data set [2], 6.48.
The IC50 is the concentration at which inhibition is half-maximal. A lower IC50 goes with greater potency. Turning to `CC[C@H](Nc1ncnc2[nH]cnc12)c1nc2cccc(F)c2c(=O)n1-c1ccccc1` [IDELALISIB], the negative logarithm of the IC50 (pIC50) in the data set with KM12 is 6.02; in the data set with HCT-116, 5.53; with T47D, 6.29; in the data set on SU-DHL-6, 7.28. The half-inhibitory concentration (IC50) at 72 h in data set [3] came to 38.2 µM.
The compound `CN1CCc2c(c3ccccc3n2Cc2ccc(C(=O)NO)cc2)C1` [TUBASTATIN A] returned an IC50 at 72 h in data set [3] of […].
Regarding `N#Cc1c(N)nc(N)nc1N1C[C@H](OC(=O)NCc2ccc(C(=O)NO)cc2)C[C@H]1c1nc2cccc(Cl)c2c(=O)n1-c1ccccc1`, the negative logarithm of the IC50 (pIC50) was 8.80 in data set [1], 7.06 in data set [2] and 6.57 against Histone deacetylase 1.
Consider `Cn1c([C@@H]2C[C@@H](OC(=O)NCc3ccc(C(=O)NO)cc3)CN2c2nc(N)nc(N)c2C#N)nc2cccc(Cl)c2c1=O`, for which the pIC50 was 7.74 in data set [1], 7.57 in data set [2] and 6.99 at Histone deacetylase 1.
On the same counts, the results for `N#Cc1c(N)nc(N)nc1N1CC2(CC2)C[C@H]1c1nc2cccc(F)c2c(=O)n1Cc1ccc(C(=O)NO)cc1` are 7.48, 7.57 and 6.54.
For `N#Cc1c(N)nc(N)nc1N1C[C@@H](OC(=O)NCc2ccc(C(=O)NO)cc2)C[C@H]1c1nc2cccc(Cl)c2c(=O)n1-c1ccccc1`, the negative logarithm of the IC50 (pIC50) in data set [1] is 8.17; in data set [2] it was 6.77.
Regarding `O=C(CCCCCCNC(=O)c1cnc(N(c2ccccc2)c2ccccc2)nc1)NO` [RICOLINOSTAT], the pIC50 with KM12 was 5.67; in the data set on HCT-116 it was 5.73; with T47D, 6.15; in the data set on SU-DHL-6, 6.08. In addition, the IC50 at 72 h in data set [3] stood at 13.6 µM.
For the compound `O=C(NO)c1ccc(Cn2c([C@@H]3CC4(CC4)CN3c3ncnc4[nH]cnc34)nc3cccc(F)c3c2=O)cc1`, the negative-log IC50 (pIC50) in data set [1] was 6.87; in data set [2] it was 7.55; at Histone deacetylase 1 it was 6.44.
